{"source": "patent EP0178946A2", "about": "“1-(Aminoalkyl)-alpha, alpha-diaryl pyrrolidine-piperidine- and homopiperidine- acetamides and acetonitriles” (A.H. ROBINS COMPANY, INCORPORATED, priority 1984, dated 1986)", "test_system": "Cardiac Arrhythmia in Dogs", "test": "Ouabain induced arrhythmias: correction of existing ventricular arrhythmia by i.v. infusion", "type": "in vivo, adult mongrel dogs", "conditions": "Canis lupus familiaris, iv, 0.5 h; Ouabain-Induced arrhythmia model; dogs under barbiturate anaesthesia; infusion into a femoral vein at 1 mg/kg/min; active if reversion to sinus rhythm maintained for at least 30 minutes; tested as difumarate hemihydrate salt, dose computed as free base; read-out: Correcting Dose mg/kg, i.v. (computed as free base)", "description": "Correction of existing cardiac arrhythmias of ventricular origin is carried out on (1) adult mongrel dogs which are under barbiturate anaesthesia during the test. A Grass Model 7 Polygraph was used for recording femoral arterial blood pressure (Statham P23AC Transducer) and the electro- cardiagram (Grass 7P4 Preamplifier). Ouabain was given intravenously in an initial dose of 40 µg/kg and in a second dose of 20 µg/kg 30 minutes after the first dose and in subsequent doses of 10 µg/kg which were repeated at 15 min. intervals as required for producing cardiac arrhythmias that persisted for at least 15 minutes. When the arrhythmias were established, the test compounds were administered by infusion (Harvard Model 942 Infusion Pump) into a femoral vein at a rate of 1 mg/kg/min. Concentration of compound was adjusted according to the weight of the dog to allow a volume infusion of 1 ml/min. The compound was considered to be active as antiarrhythmic agent if reversion to sinus rhythm occurred which was maintained for at least 30 minutes.\nData obtained for one preferred compound, namely 1-[2-(dimethylamino)ethyl]α,α-diphenyl-3-pyrrolidine- acetamide as represented by its defumarate hemihydrate salt are shown in Table 1.", "data": [{"compound": "CN(C)CCN1CCC(C(C(N)=O)(c2ccccc2)c2ccccc2)C1", "note": "(stereo not drawn) [Example 5, 1-2-(Dimethylamino)ethyl]-α,α-diphenyl-3-pyrrolidine-acetamide difumarate, hemihydrate]", "values": [{"measurement": "minimal effective dose", "value": 5, "unit": "mg/kg"}]}]}
